Data set [1] concerns MDA-MB-231 (human breast cancer). Put plainly: MTT cytotoxicity assay, MDA-MB-231. The settings on record: Homo sapiens, MDA-MB-231 cells, 50% cell growth inhibition after 72 h of drug exposure. It is filed as cell-based. On the procedure:
(§1) The cytotoxic activities of target compounds were evaluated against HT-29 (human colon cancer), MDA-MB-231 (human breast cancer), U87MG (human glioblastoma), H460 (human lung cancer), A549 (non-small-cell lung adenocarcinoma), HL-60 (human leukemic) cancer cell lines and one normal cell line WI-38 (human fetal lung fibroblasts) together with references DHA and cisplatin by a MTT assay.
(§2) The cytotoxic activities of compounds 3a–h and 6a–j were evaluated with the HT-29, MDA-MB-231, U87MG, H460, A549, HL-60 cancer cell lines and one normal cell line, WI-38, by the standard MTT assay in vitro [20], with DHA as the positive control. The cell lines were cultured in minimum essential medium (MEM) supplement with 10% fetal bovine serum (FBS). Approximately 4 × 10^3 cells, suspended in MEM medium, were plated on to each well of a 96-well plate and incubated in 5% CO2 at 37 °C for 24 h. The test compounds at indicated final concentrations were added to the culture medium and the cell cultures were continued for 72 h. Fresh MTT was added to each well at a terminal concentration of 5 μg/mL and incubated with cells at 37 °C for 4 h. The formazan crystals were dissolved in 100 μL DMSO each well, and the absorbency at 492 nm (for absorbance of MTT formazan) and 630 nm (for the reference wavelength) was measured with the ELISA reader. All of the compounds were tested twice in each of the cell lines. The results expressed as IC50 (inhibitory concentration 50%) were the averages of two determinations and calculated using the Bacus Laboratories Incorporated Slide Scanner (Bliss) software.
Background: Tetrazolium dyes change colour on reduction, which living cells bring about.

Data set [2] concerns HT-29 (human colon cancer). In words: MTT cytotoxicity assay, HT-29. It is filed as cell-based. The settings on record: Homo sapiens, HT-29 cells, 50% cell growth inhibition after 72 h of drug exposure, read-out: IC50(μM) HT29. On the procedure:
as §1, §2

Data set [3] has as its system U87MG (human glioblastoma). In words: MTT cytotoxicity assay, U87MG. It is filed as cell-based. The note with it: Homo sapiens, U-87 MG; U87MG cells, 50% cell growth inhibition after 72 h of drug exposure, MTT. On the procedure: as §1, §2
The next data set concerns H460 (human lung cancer). Put plainly: MTT cytotoxicity assay, H460. It is filed as cell-based. The note with it: Homo sapiens, NCI-H460; H460 cells, 50% cell growth inhibition after 72 h of drug exposure, MTT. On the procedure:
as §1, §2

For data set [4], the system named is A549 (non-small-cell lung adenocarcinoma). In words: MTT cytotoxicity assay, A549. The settings on record: Homo sapiens, A549 cells, 50% cell growth inhibition after 72 h of drug exposure. It is filed as cell-based, human. How it is done:
as §1, §2

For a further data set, the system named is HL-60 (human leukemic). In words: MTT cytotoxicity assay, HL-60. It is filed as cell-based. The note with it: Homo sapiens; HL-60 cells, 50% cell growth inhibition after 72 h of drug exposure, MTT. On the procedure: as §1, §2
The subject of data set [5] is WI-38 (human fetal lung fibroblasts). Put plainly: MTT cytotoxicity assay, normal cell line WI-38. It is filed as cell-based. The note with it: Homo sapiens, normal WI-38 cells, 50% cell growth inhibition after 72 h of drug exposure, read-out: IC50(μM) WI38. On the procedure:
as §1, §2

Broadly, the IC50 is the concentration that gives 50% inhibition. One may read the melting point as the temperature, or range, at which the solid turns liquid. Consider `C[C@@H]1CC[C@H]2[C@@H](C)C(OCCNC(=O)c3ccc(COc4ccc(/C=C/S(=O)(=O)Nc5cccc(Cl)c5)cc4)cc3)O[C@@H]3O[C@@]4(C)CC[C@@H]1[C@]32OO4` (stereo partly drawn) [Compound 6b, (E)-N-(2-(10β-Dihydroartemisinoxy)ethyl)-4((4-(2-(N-(3-chlorophenyl)sulfamoyl)vinyl)phenoxy)methyl)benzamide], for which the melting point lay within 146 to 149 °C. This compound also came in with an IC50 in data set [1] of 2.23 µM. Besides, the IC50 in data set [2] is 1.11 µM. In addition, in data set [3], the IC50 came out at 4.52 µM. Moreover, in the data set on H460 (human lung cancer), the IC50 is 2.79 µM. Moreover, in data set [4], half-maximal inhibition (IC50) was put at 2.86 µM. Further, the IC50 in the data set on HL-60 (human leukemic) turned out to be 1.81 µM. For the same compound, the IC50 in data set [5] stood at 35.8 µM.

In turn, `Cc1ccc(F)c(NS(=O)(=O)/C=C/c2ccc(OCc3ccc(C(=O)NCCOC4O[C@@H]5O[C@@]6(C)CC[C@H]7[C@H](C)CC[C@@H]([C@H]4C)[C@@]57OO6)cc3)cc2)c1` (stereo partly drawn) [Compound 6d, (E)-N-(2-(10β-Dihydroartemisinoxy)ethyl)-4((4-(2-(N-(2-fluoro-5-methylphenyl)sulfamoyl)vinyl)phenoxy)methyl)benzamide] showed a melting point of 135 to 137 °C. Besides, the half-maximal inhibitory concentration (IC50) in data set [1] was 1.33 µM. The IC50 in data set [2] was 1.82 µM. For the same compound, in data set [3], the midpoint of inhibition, the IC50, lay at 17.2 µM. In addition, the IC50 with H460 (human lung cancer) was 10.9 µM. The half-inhibitory concentration (IC50) in data set [4] was 9.72 µM. Half-maximal inhibition with HL-60 (human leukemic) (IC50) required 1.3 µM. Also, in data set [5], the IC50 was 19.3 µM.

As for `Cc1ccccc1NS(=O)(=O)/C=C/c1ccc(OCc2ccc(C(=O)NCCOC3O[C@@H]4O[C@@]5(C)CC[C@H]6[C@H](C)CC[C@@H]([C@H]3C)[C@@]46OO5)cc2)cc1` (stereo partly drawn) [Compound 6e, (E)-N-(2-(10β-Dihydroartemisinoxy)ethyl)-4((4-(2-(N-(2-methylphenyl)sulfamoyl)vinyl)phenoxy)methyl)benzamide], the melting point was 143 to 145 °C. In data set [1], half-maximal inhibition (IC50) was put at 2.1 µM. Moreover, the concentration for half-maximal inhibition (IC50) in data set [2] was found to be 2.09 µM. Further, in data set [3], it took 3.65 µM to reach half-maximal inhibition (IC50). The IC50 in the data set on H460 (human lung cancer) was determined as 1.92 µM. In data set [4], this compound returned an IC50 of 5.47 µM. This compound gave an IC50 in the data set on HL-60 (human leukemic) of 3.21 µM. In data set [5], the half-maximal inhibitory concentration (IC50) worked out at 16.4 µM.

Compound `C[C@@H]1CC[C@H]2[C@@H](C)C(OCCNC(=O)c3ccc(COc4ccc(/C=C/S(=O)(=O)Nc5ccc(Cl)cc5)cc4)cc3)O[C@@H]3O[C@@]4(C)CC[C@@H]1[C@]32OO4` (stereo partly drawn) [Compound 6f, (E)-N-(2-(10β-Dihydroartemisinoxy)ethyl)-4((4-(2-(N-(4-chlorophenyl)sulfamoyl)vinyl)phenoxy)methyl)benzamide] gave a melting point of 138 to 141 °C. Further, the IC50 in data set [1] was 2.38 µM. The IC50 in data set [2] was 0.92 µM. The same compound yielded an IC50 in data set [3] of 1.59 µM. This compound showed a 50% inhibitory concentration (IC50) with H460 (human lung cancer) of 1.77 µM. This compound also gave a half-inhibitory concentration (IC50) in data set [4] of 5.72 µM. The compound also returned a half-maximal inhibitory concentration (IC50) in the data set with HL-60 (human leukemic) of 1.33 µM. Also, in data set [5], the IC50 was found to be 24.7 µM.

Compound `C[C@@H]1CC[C@H]2[C@@H](C)C(OCCNC(=O)c3ccc(COc4ccc(/C=C/S(=O)(=O)Nc5ccccc5Cl)cc4)cc3)O[C@@H]3O[C@@]4(C)CC[C@@H]1[C@]32OO4` (stereo partly drawn) [Compound 6g, (E)-N-(2-(10β-Dihydroartemisinoxy)ethyl)-4((4-(2-(N-(2-chlorophenyl)sulfamoyl)vinyl)phenoxy)methyl)benzamide] came in with a melting point of 147 to 150 °C. For the same compound, in data set [1], the midpoint of inhibition, the IC50, lay at 0.72 µM. Further, in data set [2], the half-maximal inhibitory concentration (IC50) was 0.45 µM. The compound also returned an IC50 in data set [3] of 2.69 µM. This compound had an IC50 in the data set on H460 (human lung cancer) of 0.89 µM. For the same compound, the IC50 in data set [4] worked out at 5.31 µM. This compound also yielded an IC50 in the data set on HL-60 (human leukemic) of 0.27 µM. In data set [5], the IC50 worked out at 27.2 µM.

The compound `C[C@@H]1CC[C@H]2[C@@H](C)C(OCCNC(=O)c3ccc(COc4ccc(/C=C/S(=O)(=O)Nc5c(Cl)cccc5Cl)cc4)cc3)O[C@@H]3O[C@@]4(C)CC[C@@H]1[C@]32OO4` (stereo partly drawn) [Compound 6h, (E)-N-(2-(10β-Dihydroartemisinoxy)ethyl)-4((4-(2-(N-(2,6-dichlorophenyl)sulfamoyl)vinyl)phenoxy)methyl)benzamide] displayed a melting point of 151 to 153 °C. This compound showed a half-inhibitory concentration (IC50) in data set [1] of 0.88 µM. Moreover, in data set [2], the IC50 came to 0.44 µM. Further, half-maximal inhibition in data set [3] (IC50) was put at 3.12 µM. This compound came in with an IC50 in the data set on H460 (human lung cancer) of 1.21 µM. This compound registered an IC50 in data set [4] of 2.34 µM. Further, half-maximal inhibition in the data set on HL-60 (human leukemic) (IC50) required 0.18 µM. In addition, the IC50 in data set [5] was determined as 23.5 µM.

Take `COc1cccc(NS(=O)(=O)/C=C/c2ccc(OCc3ccc(C(=O)NCCOC4O[C@@H]5O[C@@]6(C)CC[C@H]7[C@H](C)CC[C@@H]([C@H]4C)[C@@]57OO6)cc3)cc2)c1` (stereo partly drawn) [Compound 6i, (E)-N-(2-(10β-Dihydroartemisinoxy)ethyl)-4((4-(2-(N-(3-methoxyphenyl)sulfamoyl)vinyl)phenoxy)methyl)benzamide]: the melting point lay within 144 to 145 °C. This compound showed an IC50 in data set [1] of 8.89 µM. The half-maximal inhibitory concentration (IC50) in data set [2] was 8.95 µM. The compound also yielded a half-maximal inhibitory concentration (IC50) in data set [3] greater than 100 µM. This compound also registered an IC50 in the data set on H460 (human lung cancer) of 16.3 µM. In data set [4], this compound gave an IC50 of 11.3 µM. Also, in the data set on HL-60 (human leukemic), 8.53 µM corresponded to half-maximal inhibition (IC50). The IC50 in data set [5] was determined as 19.2 µM.

`C[C@@H]1CC[C@H]2[C@@H](C)C(OCCNC(=O)c3ccc(COc4ccc(/C=C/S(=O)(=O)Nc5ccc(F)c(C(F)(F)F)c5)cc4)cc3)O[C@@H]3O[C@@]4(C)CC[C@@H]1[C@]32OO4` (stereo partly drawn) [Compound 6j, (E)-N-(2-(10β-Dihydroartemisinoxy)ethyl)-4((4-(2-(N-(3-trifluoromethyl-4fluorophenyl)sulfamoyl)vinyl)phenoxy)methyl)benzamide] displayed a melting point of 152 to 154 °C. For the same compound, half-maximal inhibition in data set [1] (IC50) required 1.05 µM. The 50% inhibitory concentration (IC50) in data set [2] stood at 0.38 µM. In data set [3], this compound registered an IC50 of 3.27 µM. This compound also gave a half-maximal inhibitory concentration (IC50) in the data set with H460 (human lung cancer) of 5.31 µM. In data set [4], the IC50 was determined as 2.78 µM. This compound also had an IC50 in the data set with HL-60 (human leukemic) of 1.27 µM. Further, in data set [5], the IC50 was found to be 30.4 µM.
